Experimental findings from patent publication US20130029942A1, “COMPOUNDS AND THERAPEUTICAL USES THEREOF” (Myrexis, Inc., priority 2003, published 2013) are described below.

Experiment [1] deals with T-47D cells. Nature of the experiment: Caspase cascade activation / induction of apoptosis in T-47D cells (fluorogenic N-(Ac-DEVD)-N'-ethoxycarbonyl-R110 substrate). The class given is cell-based, human. As to conditions: Homo sapiens, T47D.
Experiment [2] concerns T-47D cells. As to the kind of experiment: Inhibition of cell proliferation (GI50), CellTiter-Glo, T-47D. Format: cell-based. As to conditions: Homo sapiens, T47D, 48 h. How it is done: (§1) T-47D, DLD, H1299, MX-1 and SW620 cells were grown and harvested as in Example 262. […] An aliquot of 45 μL of cells was added to a well of a 96-well microtiter plate containing 5 μL of a 10% DMSO in RPMI-1640 media solution without compound as the control sample for maximal cell proliferation (Lmax). The samples were mixed by agitation and then incubated at 37° C. for 48 h in a 5% CO2—95% humidity incubator. After incubation, the samples were removed from the incubator and 25 μL of CellTiter-Glo™ reagent (Promega) was added. The samples were mixed by agitation and incubated at room temeperature for 10-15 min. Plates were then read using a luminescent plate reader (Model SPECTRAfluor Plus, Tecan) to give Ltest values.
(§2) The samples were mixed by agitation and then incubated at 37° C. for 0.5 h in a 5% CO2—95% humidity incubator. After incubation, the samples were removed from the incubator and 25 μL of CellTiter-Glo™ reagent (Promega) was added. The samples were mixed by agitation and incubated at 37° C. for 10-15 min at room temperature in a 5% CO2—95% humidity incubator. Fluorescence was read as above, (LStart) defining luminescence for initial cell number used as baseline in GI50 determinations.

The subject of another experiment is DLD cells. As to the kind of experiment: Inhibition of cell proliferation (GI50), CellTiter-Glo, DLD. The class given is cell-based. As to conditions: Homo sapiens, 48 h. As for the experimental part:
as §1, §2

A further experiment relates to H1299 cells. Nature of the experiment: Inhibition of cell proliferation (GI50), CellTiter-Glo, H1299. Format: cell-based. As to conditions: Homo sapiens, NCI-H1299, 48 h. As for the experimental part:
as §1, §2

A further experiment concerns MX-1 cells. As to the kind of experiment: Inhibition of cell proliferation (GI50), CellTiter-Glo, MX-1. Format: cell-based. As to conditions: Homo sapiens, MX1, 48 h. As for the experimental part: as §1, §2
The test system of a further experiment is SW620 cells. Nature of the experiment: Inhibition of cell proliferation (GI50), CellTiter-Glo, SW620. The class given is cell-based. Conditions: Homo sapiens, SW-620, 48 h. How it is done: as §1, §2
The target in a further experiment is tubulin (Bos taurus, UniProt P81947+Q6B856). Nature of the experiment: Inhibition of tubulin polymerization (DAPI fluorescence). Format: biochemical. Conditions: MAP-rich tubulin, 30 minutes at 37° C. How it is done:
Lyophilized tubulin (Cytoskeleton #ML113, 1 mg, MAP-rich) was assayed for the effect of the test compound on tubulin polymerization as measured by change in fluorescence for 4′,6-diamidino-2-phenylindole (DAPI) (Barron, D. M. et al. Analytical Biochem., 2003, 315, 49-56). 1 μl of serial dilutions of each test compound (from 100×DMSO stock) was added in 96 well plate format and preincubated for 30 minutes with 94 ul of the non-GTP supplemented tubulin supernatant. 5 μl of DAPI/GTP solution was added to initiate polymerization and incubated for 30 minutes at 37° C. Fluorescence was read with excitation 350 nm, emission wavelength 485 nm on a Tecan Spectraflour Plus. Polymerized tubulin (DMSO and with the tubulin stabilizer Taxol® (paclitaxel)) gives a higher DAPI fluorescence as compared to non-polymerized tubulin (vinblastine and colchicine used to determine baseline).

In another experiment the test system is MCF-7 cells. As to the kind of experiment: Cytotoxicity (ATP-lite cell viability), MCF-7. Conditions: Homo sapiens, MCF7; MCF-7, 72 hours. Format: cell-based. As for the experimental part:
(§3) Cytotoxicity of compounds in multidrug resistant cells can be determined by administering compounds to cell lines that overexpress the multidrug resistance pump MDR-1 and determining the viability of the cell lines.
(§4) NCI-ADR/Res, MCF-7, P388, and P388/ADR cell lines were obtained from American Type Culture Collection (Manassas, Va.) and maintained in RPMI-1640 media supplemented with 10% FCS, 10 units/ml penicillin and streptomycin, 2 mM Glutamax and 1 mM sodium pyruvate (Invitrogen Corporation, Carlsbad, Calif.). For compound testing, cells were plated in 96 well dishes at a concentration of 1.5×10^4 cells/well. Cells were allowed to adhere to the plate overnight and then incubated with compounds at final concentrations ranging from 0.13 nM to 10 uM for 72 hours. Cell viability was then assessed using the ATP-lite reagent (Perkin Elmer, Foster City, Calif.). Plates were read on a Wallac Topcount luminescence reader (Perkin Elmer, Foster City, Calif.) and the results graphed in Prism software (Graphpad Software, Inc., San Diego, Calif.). Non-linear regression with variable slope analysis was performed to obtain IC50 concentration values.
(§5) Example 1 compound, docetaxel, and vinblastine were tested for their ability to kill multidrug resistant cells by administering the compounds to NCI-ADR/Res, MCF-7 cells, P388 and P388/ADR cells and determining the viability of the cells.

Another experiment concerns NCI-ADR/Res cells. As to the kind of experiment: Cytotoxicity (ATP-lite cell viability), MDR-1 over-expressing NCI-ADR/Res. The class given is cell-based. As to conditions: Homo sapiens, 72 hours. As for the experimental part:
as §3, §4, §5

In a further experiment the test system is P388 cells. As to the kind of experiment: Cytotoxicity (ATP-lite cell viability), P388. Format: cell-based, murine. Conditions: Mus musculus; P388, 72 hours. As for the experimental part: as §3, §4, §5
A further experiment has as its system P388/ADR cells. Nature of the experiment: Cytotoxicity (ATP-lite cell viability), MDR-1 over-expressing P388/ADR. As to conditions: Mus musculus, 72 hours. The class given is cell-based. How it is done: as §3, §4, §5
Another experiment addresses T1, topoisomerase I (Homo sapiens, UniProt P11387).
T1 sequence (P11387 1-765): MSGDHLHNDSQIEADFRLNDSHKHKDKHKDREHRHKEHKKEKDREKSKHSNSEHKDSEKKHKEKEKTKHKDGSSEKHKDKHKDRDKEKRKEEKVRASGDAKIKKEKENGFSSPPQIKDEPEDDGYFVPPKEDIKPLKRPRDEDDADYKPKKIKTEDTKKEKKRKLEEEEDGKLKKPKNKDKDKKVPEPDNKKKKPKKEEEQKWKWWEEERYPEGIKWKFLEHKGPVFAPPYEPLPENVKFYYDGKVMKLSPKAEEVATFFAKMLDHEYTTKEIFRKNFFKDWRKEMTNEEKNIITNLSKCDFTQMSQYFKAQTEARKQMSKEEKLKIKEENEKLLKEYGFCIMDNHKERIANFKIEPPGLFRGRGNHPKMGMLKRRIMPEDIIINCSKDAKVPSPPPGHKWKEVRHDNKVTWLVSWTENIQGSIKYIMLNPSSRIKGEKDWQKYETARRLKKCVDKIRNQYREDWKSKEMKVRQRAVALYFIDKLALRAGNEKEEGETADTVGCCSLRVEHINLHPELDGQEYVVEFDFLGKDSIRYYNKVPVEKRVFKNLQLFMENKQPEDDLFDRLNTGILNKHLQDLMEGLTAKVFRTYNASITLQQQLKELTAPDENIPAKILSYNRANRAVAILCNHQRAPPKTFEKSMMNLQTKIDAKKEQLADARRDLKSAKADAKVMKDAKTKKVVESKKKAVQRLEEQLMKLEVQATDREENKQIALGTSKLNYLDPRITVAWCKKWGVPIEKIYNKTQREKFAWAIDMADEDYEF
As to the kind of experiment: Topoisomerase I activity assay (relaxation of supercoiled DNA, gel). As to conditions: Form I DNA, varying concentrations, FIG. 2.

The next experiment concerns the target Topoisomerase II (Homo sapiens, UniProt P11388). Nature of the experiment: Topoisomerase II activity assay (relaxation of supercoiled DNA, gel). As to conditions: 100 μM, pRYG DNA, FIG. 1.
The target in experiment [3] is T2, Human Type II Topoisomerase (p170 Form) (Homo sapiens, UniProt P11388).
T2 construct: purchased TopoGEN, Inc., Columbus, Ohio
As to the kind of experiment: Photo-crosslinking of radiolabeled compound to Topoisomerase II (SDS gel, autoradiography). Format: binding. Conditions: 50 nM, 60 minutes at room temperature, UV 254 nm, FIG. 3. As for the experimental part:
30 Units (15 ul) Human Type II Topoisomerase (p170 Form) (from TopoGEN, Inc., Columbus, Ohio) was incubated with 50 nM radiolabeled Example 102 compound for 60 minutes at room temperature.
Radiolabeled Example 102 compound stock is 16.67 uM, 60 Ci/mmol, 1 mCi/ml American Radiolabeled Chemicals, Inc., St. Louis, Mo. Samples were either UV irradiated (+) with a short wavelength UV Source (254 nm) for 10 minutes at a distance of 3.5 cm or not irradiated (−). 8 ul of 5× sample buffer (150 mM Tris, pH 6.8, 50% glycerol, 1% SDS, 50 mM dithiothreitol, 62 mg/ml bromophenol blue) was added to the samples and boiled for 5 minutes. The entire sample was then loaded onto a 6% Tris-Glycine SDS-gel (10 well, 1.5 mm thickness) (Invitrogen, Carlsbad, Calif.). The gel was stained with 1% Coomassie Brilliant Blue in 40% methanol, 7.5% acetic acid for 2 hours then de-stained in several changes of de-stainer (40% methanol, 7.5% acetic acid). The gel was then incubated in Amplify (Amersham, Piscataway, N.J.) for 30 minutes at room temperature and then dried down on Whatman filter paper at 80° C. for 2 hours on a gel dryer. The dried gel was put on Hyperfilm (Amersham) in a film cassette and placed at −80° C. for 5-7 days.

pIC50: −log10 of the molar value. Where two headings read alike, the source gives them in different places. Bounds are passed on as bounds.

T2 sequence (P11388 whole entry): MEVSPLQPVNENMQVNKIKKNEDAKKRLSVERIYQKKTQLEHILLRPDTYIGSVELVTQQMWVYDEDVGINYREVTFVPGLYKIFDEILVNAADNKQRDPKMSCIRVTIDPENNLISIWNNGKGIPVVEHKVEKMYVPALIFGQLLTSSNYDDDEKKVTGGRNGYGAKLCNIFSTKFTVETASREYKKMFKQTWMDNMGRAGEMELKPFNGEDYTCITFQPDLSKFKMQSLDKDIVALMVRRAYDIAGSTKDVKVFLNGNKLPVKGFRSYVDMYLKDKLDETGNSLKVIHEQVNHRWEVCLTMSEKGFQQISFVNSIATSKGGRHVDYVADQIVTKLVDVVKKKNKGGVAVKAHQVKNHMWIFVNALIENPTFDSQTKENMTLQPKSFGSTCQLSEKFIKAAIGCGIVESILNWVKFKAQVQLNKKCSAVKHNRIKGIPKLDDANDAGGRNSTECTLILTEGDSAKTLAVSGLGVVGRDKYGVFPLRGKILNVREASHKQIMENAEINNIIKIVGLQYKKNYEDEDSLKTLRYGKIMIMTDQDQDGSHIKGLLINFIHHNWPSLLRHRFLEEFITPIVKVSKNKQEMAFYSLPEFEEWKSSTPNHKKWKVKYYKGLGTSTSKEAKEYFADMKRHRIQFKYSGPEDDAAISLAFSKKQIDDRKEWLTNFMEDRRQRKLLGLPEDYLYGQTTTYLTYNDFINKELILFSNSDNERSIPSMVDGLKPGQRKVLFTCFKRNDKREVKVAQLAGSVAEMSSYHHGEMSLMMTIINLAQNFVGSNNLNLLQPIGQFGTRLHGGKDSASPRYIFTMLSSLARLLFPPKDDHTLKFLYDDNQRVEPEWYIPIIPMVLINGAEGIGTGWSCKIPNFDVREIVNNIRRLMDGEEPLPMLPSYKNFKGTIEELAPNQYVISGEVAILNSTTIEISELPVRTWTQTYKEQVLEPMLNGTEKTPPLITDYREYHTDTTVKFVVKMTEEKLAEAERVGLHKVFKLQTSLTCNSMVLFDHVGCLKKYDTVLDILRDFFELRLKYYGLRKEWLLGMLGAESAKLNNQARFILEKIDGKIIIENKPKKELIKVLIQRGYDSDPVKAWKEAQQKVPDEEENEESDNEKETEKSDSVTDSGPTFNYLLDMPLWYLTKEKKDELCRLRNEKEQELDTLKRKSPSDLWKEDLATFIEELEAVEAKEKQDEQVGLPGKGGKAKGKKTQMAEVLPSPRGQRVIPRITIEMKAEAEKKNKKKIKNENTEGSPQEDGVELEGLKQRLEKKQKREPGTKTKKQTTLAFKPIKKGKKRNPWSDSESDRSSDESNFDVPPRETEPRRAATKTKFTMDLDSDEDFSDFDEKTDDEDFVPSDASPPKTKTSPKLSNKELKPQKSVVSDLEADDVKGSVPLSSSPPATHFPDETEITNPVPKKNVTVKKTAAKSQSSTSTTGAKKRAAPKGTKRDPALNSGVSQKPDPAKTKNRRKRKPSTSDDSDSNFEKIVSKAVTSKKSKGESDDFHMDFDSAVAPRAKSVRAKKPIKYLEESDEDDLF
Chain of Topoisomerase II (P11388 whole entry): as above
Chain of tubulin (P81947 whole entry): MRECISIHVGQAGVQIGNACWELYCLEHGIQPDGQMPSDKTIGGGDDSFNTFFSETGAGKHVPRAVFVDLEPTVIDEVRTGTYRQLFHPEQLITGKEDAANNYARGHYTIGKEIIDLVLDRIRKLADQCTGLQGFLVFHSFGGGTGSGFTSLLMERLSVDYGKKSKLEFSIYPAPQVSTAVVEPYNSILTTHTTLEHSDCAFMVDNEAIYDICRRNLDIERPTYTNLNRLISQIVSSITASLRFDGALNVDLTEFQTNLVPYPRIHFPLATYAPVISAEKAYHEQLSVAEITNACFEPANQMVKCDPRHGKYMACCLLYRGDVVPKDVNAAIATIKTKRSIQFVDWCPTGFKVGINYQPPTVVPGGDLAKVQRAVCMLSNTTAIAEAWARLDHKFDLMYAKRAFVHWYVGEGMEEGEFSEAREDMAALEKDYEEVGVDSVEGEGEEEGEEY
Chain of tubulin (Q6B856 whole entry): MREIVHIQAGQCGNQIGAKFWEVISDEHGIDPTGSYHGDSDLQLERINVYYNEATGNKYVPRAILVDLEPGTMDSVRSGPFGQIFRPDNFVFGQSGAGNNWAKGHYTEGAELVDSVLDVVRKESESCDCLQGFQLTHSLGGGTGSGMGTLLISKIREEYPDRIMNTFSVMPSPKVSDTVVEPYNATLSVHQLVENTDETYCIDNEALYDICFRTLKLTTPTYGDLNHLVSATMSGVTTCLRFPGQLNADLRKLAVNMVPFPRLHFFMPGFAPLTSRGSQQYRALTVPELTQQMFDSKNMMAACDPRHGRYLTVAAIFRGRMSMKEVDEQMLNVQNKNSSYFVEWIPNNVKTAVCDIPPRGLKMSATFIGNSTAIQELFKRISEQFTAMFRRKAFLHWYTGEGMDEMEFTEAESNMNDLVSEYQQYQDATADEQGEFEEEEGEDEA

Take `COc1ccc(N(C)c2nc(Cl)nc3ccccc23)cc1` [Example 1]: the EC50 in the experiment with T-47D cells [1] (24 h, read-out: T-47D (24 hr) EC50 (nM)) stood at 2 nM; with T-47D cells [1] (read-out: Caspase activation (EC50 nM)), 2 nM. Moreover, the GI50 was 8 nM in the experiment on T-47D cells [2]; 8 nM with DLD cells; 6 nM in the experiment on H1299 cells; 5 nM with MX-1 cells; 3 nM in the experiment on SW620 cells. In addition, the pIC50 against tubulin is > 6.30. Moreover, the IC50 came out at 2.9 nM in the experiment on MCF-7 cells, 1.3 nM in the experiment on NCI-ADR/Res cells, 1.1 nM in the experiment with P388 cells and 2.7 nM with P388/ADR cells. On topoisomerase I, the “Effect on topoisomerase I-dependent relaxation of supercoiled DNA” value is reported as “no apparent effect on topoisomerase I activity”. Further, the “Inhibition of topoisomerase II-dependent relaxation of supercoiled DNA” value on Topoisomerase II is recorded as “inhibition of DNA relaxation is substantial”.

Consider “Radiolabeled (4-Azido-phenyl)-(2-methyl-quinazolin-4-yl)-methyl-amine [Radiolabeled Example 102 compound]”, for which the “Binding to Topoisomerase II (crosslink on UV irradiation)” value in experiment [3] was “binds sufficiently well to Topoisomerase II to crosslink to the enzyme when photoactivated”.
